From patent US6093732A, “4-hydroxyquinoline-3-carboxamides and hydrazides as antiviral agents” (Pharmacia & Upjohn Company, priority 1998, dated 2000)
pIC50: −log10 of the molar value.

Tests used:
Type in all cases: biochemical
HCMV polymerase = molecular target: T1, HCMV polymerase (Human cytomegalovirus, UniProt P08546); test: HCMV polymerase scintillation proximity assay (SPA), modified version; settings: CMV polymerase; Table 1; modified assay with 4.5 mM DTT, compounds in 100% DMSO; read-out: Antiviral Selective Polymerase IC50 Values, CMV
T1 construct: made in house; host or cells: recombinant baculovirus-infected SF-9 cells
Summary of the method: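 Recombinant polymerase (baculovirus/SF-9) in 5.4 mM HEPES pH 7.5, 11.7 mM KCl, 4.5 mM MgCl2, 0.36 mg/ml BSA, 90 nM 3H-dTTP, ±2 mM CHAPS; started with 6 nM biotinylated poly(dA)-oligo(dT), 25° C or 37° C, EDTA-stopped in linear range (30 min for HCMV). Streptavidin-SPA read; IC50 by linear regression. Modified version: 100% DMSO compound dilution, 4.5 mM DTT added.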

HSV polymerase = HSV polymerase (Human herpesvirus 1, UniProt P04293); test: HSV polymerase assay (procedure similar to the HCMV polymerase SPA); settings: Table 1, read-out: Antiviral Selective Polymerase IC50 Values, HSV
Description: (§1) The HCMV polymerase assay is performed using a scintillation proximity assay (SPA) as described in several references, such as N. D. Cook, et al., Pharmaceutical Manufacturing International, pages 49-53 (1992); K. Takeuchi, Laboratory Practice, September issue (1992); U.S. Pat. No. 4,568,649 (1986); which are incorporated by reference herein. Reactions are performed in 96-well plates. The assay is conducted in 100 μl volume with 5.4 mM HEPES (pH 7.5), 11.7 mM KCl, 4.5 mM MgCl2, 0.36 mg/ml BSA, and 90 nM ^3 H-dTTP. Assays are run with and without CHAPS, (3-[(3-Cholamidopropyl)-dimethylammonio]-1-propane-sulfonate) at a final concentration of 2 mM. HCMV polymerase is diluted in enzyme dilution buffer containing 50% glycerol, 250 mM NaCl, 10 mM HEPES (pH 7.5), 100 μg/ml BSA, and 0.01% sodium azide. The HCMV polymerase, which is expressed in recombinant baculovirus-infected SF-9 cells and purified according to literature procedures, is added at 10% (or 10 μl) of the final reaction volume, i.e., 100 μl. Compounds are diluted in 50% DMSO and 10 μl are added to each well. Control wells contain an equivalent concentration of DMSO. Unless noted otherwise, reactions are initiated via the addition of 6 nM biotinylated poly(dA)-oligo(dT) template/primer to reaction mixtures containing the enzyme, substrate, and compounds of interest. Plates are incubated in a 25° C. or 37° C. H2 O bath and terminated via the addition of 40 μl/reaction of 0.5 M EDTA (pH 8) per well. Reactions are terminated within the time-frame during which substrate incorporation is linear and varied depending upon the enzyme and conditions used, i.e., 30 min. for HCMV polymerase. Ten μl of streptavidin-SPA beads (20 mg/ml in PBS/10% glycerol) are added following termination of the reaction. Plates are incubated 10 min. at 37° C., then equilibrated to room temperature, and counted on a Packard Topcount. Linear regressions are performed and IC50 's are calculated using computer software.
(§2) A modified version of the above HCMV polymerase assay is performed as described above, but with the following changes: Compounds are diluted in 100% DMSO until final dilution into assay buffer. In the previous assay, compounds are diluted in 50% DMSO. 4.5 mM dithiotherotol (DTT) is added to the polymerase buffer. […] Other viral polymerase assays are performed using procedures similar to those described above.

VZV polymerase = VZV polymerase (Varicella-zoster virus, UniProt P09252); test: VZV polymerase assay (procedure similar to the HCMV polymerase SPA); settings: Table 1, read-out: Antiviral Selective Polymerase IC50 Values, VZV
Description: as §1, §2

T1 sequence (P08546 whole entry): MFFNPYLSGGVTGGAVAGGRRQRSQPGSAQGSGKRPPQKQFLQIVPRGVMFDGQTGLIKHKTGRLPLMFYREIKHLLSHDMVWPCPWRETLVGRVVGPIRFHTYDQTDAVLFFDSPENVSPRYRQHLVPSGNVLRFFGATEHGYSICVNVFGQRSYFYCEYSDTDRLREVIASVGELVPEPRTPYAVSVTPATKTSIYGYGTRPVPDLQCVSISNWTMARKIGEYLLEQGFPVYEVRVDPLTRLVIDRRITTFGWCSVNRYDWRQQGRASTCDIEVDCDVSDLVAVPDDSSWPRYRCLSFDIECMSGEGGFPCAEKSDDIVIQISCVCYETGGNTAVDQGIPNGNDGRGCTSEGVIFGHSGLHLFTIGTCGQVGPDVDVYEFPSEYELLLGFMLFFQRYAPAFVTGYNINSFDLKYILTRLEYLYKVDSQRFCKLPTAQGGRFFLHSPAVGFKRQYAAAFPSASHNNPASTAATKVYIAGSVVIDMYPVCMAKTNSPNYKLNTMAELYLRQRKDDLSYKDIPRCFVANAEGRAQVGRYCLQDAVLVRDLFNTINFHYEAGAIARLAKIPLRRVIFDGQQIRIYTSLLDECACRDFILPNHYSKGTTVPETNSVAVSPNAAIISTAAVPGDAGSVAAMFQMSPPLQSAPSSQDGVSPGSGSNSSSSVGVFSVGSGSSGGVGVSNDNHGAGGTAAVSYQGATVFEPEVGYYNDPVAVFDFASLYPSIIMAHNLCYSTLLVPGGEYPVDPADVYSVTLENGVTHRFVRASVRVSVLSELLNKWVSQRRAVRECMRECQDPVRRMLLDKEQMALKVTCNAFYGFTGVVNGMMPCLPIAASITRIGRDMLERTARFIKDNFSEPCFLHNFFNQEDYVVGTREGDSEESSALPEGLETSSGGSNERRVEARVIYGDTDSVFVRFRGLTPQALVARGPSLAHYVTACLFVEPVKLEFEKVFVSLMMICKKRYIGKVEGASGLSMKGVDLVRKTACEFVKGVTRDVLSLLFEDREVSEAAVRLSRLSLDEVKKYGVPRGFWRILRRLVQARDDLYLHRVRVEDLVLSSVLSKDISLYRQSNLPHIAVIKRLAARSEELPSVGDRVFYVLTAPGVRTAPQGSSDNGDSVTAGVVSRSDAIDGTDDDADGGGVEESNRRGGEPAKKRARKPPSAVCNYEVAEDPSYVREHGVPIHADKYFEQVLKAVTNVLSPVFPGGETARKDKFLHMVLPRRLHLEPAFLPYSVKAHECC
VZV polymerase, sequence (P09252 whole entry): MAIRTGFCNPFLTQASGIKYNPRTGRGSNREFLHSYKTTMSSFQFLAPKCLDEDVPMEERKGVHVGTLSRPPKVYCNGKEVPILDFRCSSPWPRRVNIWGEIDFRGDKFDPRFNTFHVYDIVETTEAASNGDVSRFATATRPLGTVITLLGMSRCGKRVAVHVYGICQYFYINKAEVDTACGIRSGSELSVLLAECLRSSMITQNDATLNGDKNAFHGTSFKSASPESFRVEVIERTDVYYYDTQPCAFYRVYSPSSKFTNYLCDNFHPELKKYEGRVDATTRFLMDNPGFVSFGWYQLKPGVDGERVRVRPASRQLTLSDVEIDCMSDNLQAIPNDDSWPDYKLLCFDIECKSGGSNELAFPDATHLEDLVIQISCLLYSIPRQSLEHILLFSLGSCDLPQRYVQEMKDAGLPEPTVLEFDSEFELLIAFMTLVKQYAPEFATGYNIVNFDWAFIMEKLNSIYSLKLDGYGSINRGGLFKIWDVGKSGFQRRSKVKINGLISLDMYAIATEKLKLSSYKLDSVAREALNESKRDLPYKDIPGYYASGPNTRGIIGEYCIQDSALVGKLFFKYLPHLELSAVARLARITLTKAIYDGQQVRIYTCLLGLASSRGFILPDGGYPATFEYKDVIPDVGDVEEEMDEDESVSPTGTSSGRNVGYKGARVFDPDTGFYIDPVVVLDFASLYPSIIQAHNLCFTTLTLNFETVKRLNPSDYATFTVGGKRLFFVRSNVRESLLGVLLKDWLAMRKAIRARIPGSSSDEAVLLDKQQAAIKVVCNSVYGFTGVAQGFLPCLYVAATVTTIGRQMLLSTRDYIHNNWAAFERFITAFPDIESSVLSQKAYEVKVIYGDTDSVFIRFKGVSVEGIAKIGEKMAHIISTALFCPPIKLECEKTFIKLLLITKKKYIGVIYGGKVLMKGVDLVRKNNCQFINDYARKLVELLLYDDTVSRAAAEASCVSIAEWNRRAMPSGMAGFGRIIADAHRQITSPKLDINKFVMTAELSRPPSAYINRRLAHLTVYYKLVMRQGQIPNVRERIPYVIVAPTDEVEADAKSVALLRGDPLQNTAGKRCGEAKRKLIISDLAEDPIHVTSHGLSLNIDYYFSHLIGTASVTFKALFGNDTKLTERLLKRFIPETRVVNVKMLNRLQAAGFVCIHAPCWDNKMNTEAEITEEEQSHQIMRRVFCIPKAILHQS
HSV polymerase, sequence (P04293 whole entry): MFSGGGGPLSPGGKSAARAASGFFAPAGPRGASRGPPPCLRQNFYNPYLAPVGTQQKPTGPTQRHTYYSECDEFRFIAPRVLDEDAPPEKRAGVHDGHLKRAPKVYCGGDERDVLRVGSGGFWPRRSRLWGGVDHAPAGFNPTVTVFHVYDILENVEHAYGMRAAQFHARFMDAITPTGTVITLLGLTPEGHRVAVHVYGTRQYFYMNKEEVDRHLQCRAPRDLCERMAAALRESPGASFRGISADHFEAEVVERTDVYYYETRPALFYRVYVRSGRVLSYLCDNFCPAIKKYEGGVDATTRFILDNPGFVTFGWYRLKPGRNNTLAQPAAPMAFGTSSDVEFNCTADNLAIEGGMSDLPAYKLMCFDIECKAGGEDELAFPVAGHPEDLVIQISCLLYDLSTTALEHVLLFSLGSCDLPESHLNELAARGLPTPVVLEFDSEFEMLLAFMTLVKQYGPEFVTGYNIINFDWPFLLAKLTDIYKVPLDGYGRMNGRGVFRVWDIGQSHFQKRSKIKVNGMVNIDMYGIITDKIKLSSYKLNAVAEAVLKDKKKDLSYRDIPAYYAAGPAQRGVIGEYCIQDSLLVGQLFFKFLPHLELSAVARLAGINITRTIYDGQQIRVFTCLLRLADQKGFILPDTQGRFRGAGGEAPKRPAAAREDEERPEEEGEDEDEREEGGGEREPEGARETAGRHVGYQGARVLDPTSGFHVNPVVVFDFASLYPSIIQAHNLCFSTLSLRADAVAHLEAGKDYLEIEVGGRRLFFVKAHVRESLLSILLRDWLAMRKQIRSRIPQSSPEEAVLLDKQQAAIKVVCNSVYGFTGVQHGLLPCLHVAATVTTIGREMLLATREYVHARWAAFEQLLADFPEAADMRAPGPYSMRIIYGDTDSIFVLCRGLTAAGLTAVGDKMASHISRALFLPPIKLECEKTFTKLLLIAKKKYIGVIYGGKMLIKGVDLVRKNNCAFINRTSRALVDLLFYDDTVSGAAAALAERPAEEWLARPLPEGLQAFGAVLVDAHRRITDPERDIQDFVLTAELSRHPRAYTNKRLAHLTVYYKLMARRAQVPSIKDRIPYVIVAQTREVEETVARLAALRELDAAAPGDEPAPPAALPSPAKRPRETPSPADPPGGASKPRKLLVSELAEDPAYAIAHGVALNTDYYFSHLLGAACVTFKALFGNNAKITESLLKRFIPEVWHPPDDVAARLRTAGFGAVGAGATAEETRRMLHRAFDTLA

pIC50 (HCMV polymerase)	pIC50 (HSV polymerase)	pIC50 (VZV polymerase)	Structure (SMILES)
4.42	4.45	4.88	O=C(NCc1ccc(Cl)cc1)c1cnc2cc(C(F)(F)F)ccc2c1O [Example 1, N-[(4-Chlorophenyl)methyl]-4-hydroxy-7-(trifluoromethyl)-3-quinoline-carboxamide]
5.28	5.46	6.22	Nc1ccc2c(O)c(C(=O)NCc3ccc(Cl)cc3)cnc2c1 [Example 2, 7-Amino-N-[(4-chlorophenyl)methyl]-4-hydroxy-3-quinolinecarboxamide]
5.12	5.64	6.15	O=C(NCc1ccc(Cl)cc1)c1cnc2ccccc2c1O [Example 6, N-[(4-Chlorophenyl)methyl]-4-hydroxy-3-quinolinecarboxamide]
5.31	5.26	6.15	COc1ccc2c(O)c(C(=O)NCc3ccc(Cl)cc3)cnc2c1 [Example 7, N-[(4-Chlorophenyl)methyl]-4-hydroxy-7-methoxy-3-quinoline-carboxamide]
> 5.64	> 5.64	5.60	O=C(NCc1ccc(Cl)cc1)c1cnc2cc(F)ccc2c1O [Example 9, N-[(4-Chlorophenyl)methyl]-7-fluoro-4-hydroxy-3-quinolinecarboxamide]
5.01	4.85	5.41	O=C(NCc1ccc(Cl)cc1)c1cnc2ccc(F)cc2c1O [Example 10, N-[(4-Chlorophenyl)methyl]-6-fluoro-4-hydroxy-3-quinoline-carboxamide]
5.85	5.47	> 5.51	O=C(NCc1ccc(Cl)cc1)c1cnc2c(F)cccc2c1O [Example 12, N-[(4-Chlorophenyl)methyl]-8-fluoro-4-hydroxy-3-quinoline-carboxamide]
> 5.64	5.52	> 5.64	O=C(NCc1ccc(Cl)cc1)c1cnc2ccc([N+](=O)[O-])cc2c1O [Example 13, N-[(4-Chlorophenyl)methyl]-4-hydroxy-6-nitro-3-quinoline-carboxamide]
4.94	5.10	5.44	O=C(NCc1ccc(Cl)cc1)c1cnc2c(F)c(F)c(F)c(F)c2c1O [Example 14, N-[(4-Chlorophenyl)methyl]-5,6,7,8-tetrafluoro-4-hydroxy-3-quinolinecarboxamide]
4.68	4.66	4.88	O=C(NCc1ccc(Cl)cc1)c1cnc2c(F)c(F)c(F)cc2c1O [Example 15, N-[(4-Chlorophenyl)methyl]-6,7,8-trifluoro-4-hydroxy-3-quinolinecarboxamide]
5.57	5.55	5.89	O=C(NNc1ccc(Cl)cc1)c1cnc2c(F)c(F)c(F)cc2c1O [Example 16, 6,7,8-Trifluoro-4-hydroxy-3-quinolinecarboxylic acid 2-(4-chlorophenyl)hydrazide]
4.87	4.73	5.08	CC(=O)Nc1ccc2c(O)c(C(=O)NCc3ccc(Cl)cc3)cnc2c1 [Example 25, 7-(Acetylamino)-N-[(4-chlorophenyl)methyl]-4-hydroxy-3-quinolinecarboxamide]
4.77	4.60	4.85	CS(=O)(=O)Nc1ccc2c(O)c(C(=O)NCc3ccc(Cl)cc3)cnc2c1 [Example 26, N-[(4-Chlorophenyl)methyl]-4-hydroxy-7-[(methylsulfonyl)-amino]-3-quinolinecarboxamide]
4.74	4.71	5.08	Nc1ccc2ncc(C(=O)NCc3ccc(Cl)cc3)c(O)c2c1 [Example 28, 6-Amino-N-[(4-chlorophenyl)methyl]-4-hydroxy-3-quinoline-carboxamide]
4.47	4.15	4.60	CS(=O)(=O)Nc1ccc2ncc(C(=O)NCc3ccc(Cl)cc3)c(O)c2c1 [Example 29, N-[(4-Chlorophenyl)methyl]-4-hydroxy-6-[(methylsulfonyl)-amino]-3-quinolinecarboxamide]
4.97	4.84	5.12	CN(C)c1ccc2ncc(C(=O)NCc3ccc(Cl)cc3)c(O)c2c1 [Example 30, N-[(4-Chlorophenyl)methyl]-6-(dimethylamino)-4-hydroxy-3-quinolinecarboxamide]
4.58	4.09	4.59	CC(=O)Nc1ccc2ncc(C(=O)NCc3ccc(Cl)cc3)c(O)c2c1 [Example 31, 6-(Acetylamino)-N-[(4-chlorophenyl)methyl]-4-hydroxy-3-quinolinecarboxamide]
4.66	< 4.00	4.27	O=C(NCc1ccc(Cl)cc1)c1cnc2cc(-n3cccc3)ccc2c1O [Example 32, N-[(4-Chlorophenyl)methyl]-4-hydroxy-7-(1-pyrrolyl)-3-quinolinecarboxamide]
> 6.11	6.19	6.41	O=C(NCc1ccc(Cl)cc1)c1cnc2c(F)cc(C#CCO)cc2c1O [Example 53, N-[(4-Chlorophenyl)methyl]-8-fluoro-4-hydroxy-6-(3-hydroxy-1-propynyl)-3-quinolinecarboxamide]
6.77	6.37	6.80	O=C(NCc1ccc(Cl)cc1)c1cnc2c(F)cc(-c3cccs3)cc2c1O [Example 75, N-[(4-Chlorophenyl)methyl]-8-fluoro-4-hydroxy-6-(2-thiophenyl)-3-quinolinecarboxamide]
6.85	6.70	7.05	O=C(NCc1ccc(Cl)cc1)c1cnc2c(F)cc(CCCCO)cc2c1O [Example 99, N-(4-Chlorobenzyl)-8-fluoro-4-hydroxy-6-(4-hydroxybutyl)-3-quinolinecarboxamide]
4.99	4.79	5.02	CC(C)(O)CCc1cc(F)c2ncc(C(=O)NCc3ccc(Cl)cc3)c(O)c2c1 [Example 106, N-(4-Chlorobenzyl)-8-fluoro-4-hydroxy-6-(3-hydroxy-3-methylbutyl)-3-quinolinecarboxamide]
6.17	6.18	6.70	COc1cc(C#CCO)cc2c(O)c(C(=O)NCc3ccc(Cl)cc3)cnc12 [Example 118, N-(4-Chlorobenzyl)-4-hydroxy-6-(3-hydroxy-1-propynyl)-8-methoxy-3-quinolinecarboxamide]
5.07			O=C(NCc1ccc(Cl)cc1)c1cnc2ccc(CCCO[PH](=O)O)cc2c1O [Example 272, 3-(3-{[(4-Chlorobenzyl)amino]carbonyl}-4-hydroxy-6-quinolinyl)propyl hydrogen phosphonate]
4.55			CN(CCS(=O)(=O)O)C(=O)CCCCCCC(=O)OCC#Cc1cc(F)c2ncc(C(=O)NCc3ccc(Cl)cc3)c(O)c2c1 [Example 275]
6.11			O=C(NCc1ccc(Cl)cc1)c1cnc2cc(S(=O)(=O)NCc3cccc4ccccc34)ccc2c1O [Example 277, N-(4-Chlorobenzyl)-4-hydroxy-7-{[(1-naphthylmethyl)amino]-sulfonyl}-3-quinolinecarboxamide]
5.68			CSc1ccc2c(O)c(C(=O)NCc3ccc(Cl)cc3)cnc2c1 [Example 278, N-(4-Chlorobenzyl)-4-hydroxy-7-(methylsulfanyl)-3-quinolinecarboxamide]
5.31			O=C(NCc1ccc(Cl)cc1)c1cnc2cc3c(cc2c1O)OCO3 [Example 279, N-(4-Chlorobenzyl)-8-hydroxy[1,3]dioxolo [4,5-g]quinoline-7-carboxamide]
4.24			O=C(c1ccccc1)c1ccc2ncc(C(=O)NCc3ccc(Cl)cc3)c(O)c2c1 [Example 280, 6-Benzoyl-N-(4-chlorobenzyl)-4-hydroxy-3-quinolinecarboxamide]
